Assays:
Assay in all cases: NCI-60 SRB screening (one-dose and five-dose)
Type in all cases: cell-based, human
HCC-2998 = conditions: 48 h
Method: (§1) The compounds were added at a single concentration and the cell cultures were incubated for 48 h. The end point determinations were made with a protein binding dye, sulforhodamine B (SRB). […] The percentage of growth was evaluated spectrophotometrically versus controls not treated with test agents after 48-h exposure and using SRB protein assay to estimate cell viability or growth. […] Furthermore, mean graph midpoints (MG_MID) were calculated for each of the parameters, giving an average activity parameter over all cell lines for the tested compound. For the MG_MID calculation, insensitive cell lines were included with the highest concentration tested.

SK-OV-3 = conditions: 48 h
Method: as §1

SK-MEL-5 = conditions: 48 h
Method: as §1

OVCAR-8 = conditions: 48 h
Method: as §1

HOP-92 = conditions: 48 h
Method: as §1

LOX IMVI = conditions: 48 h
Method: as §1

M14 = conditions: 48 h
Method: as §1

COLO 205 = conditions: 48 h
Method: as §1

EKVX = conditions: 48 h
Method: as §1

CAKI-1 = conditions: 48 h
Method: as §1

A498 = conditions: Homo sapiens; A498, five dose 0.01–100 μM, 48 h
Method: as §1

RXF 393 = conditions: 48 h
Method: as §1

OVCAR-5 = conditions: 48 h
Method: as §1

MDA-MB-468 = conditions: 48 h
Method: as §1

HL-60(TB) = conditions: 48 h
Method: as §1

SK-MEL-28 = conditions: 48 h
Method: as §1

K-562 = conditions: 48 h
Method: as §1

RPMI-8226 = conditions: 48 h
Method: as §1

SF-268 = conditions: 48 h
Method: as §1

SNB-19 = conditions: 48 h
Method: as §1

CCRF-CEM = conditions: 48 h
Method: as §1

NCI-H226 = conditions: 48 h
Method: as §1

HCT-15 = conditions: 48 h
Method: as §1

BT-549 = conditions: 48 h
Method: as §1

SK-MEL-2 = conditions: 48 h
Method: as §1

NCI-H460 = conditions: 48 h
Method: as §1

SR = conditions: 48 h
Method: as §1

HT29 = conditions: 48 h
Method: as §1

OVCAR-3 = conditions: 48 h
Method: as §1

SNB-75 = conditions: 48 h
Method: as §1

NCI-H23 = conditions: 48 h
Method: as §1

DU-145 = conditions: 48 h
Method: as §1

MDA-MB-435 = conditions: 48 h
Method: as §1

SF-295 = conditions: 48 h
Method: as §1

MOLT-4 = conditions: 48 h
Method: as §1

UO-31 = conditions: 48 h
Method: as §1

HOP-62 = conditions: 48 h
Method: as §1

TK-10 = conditions: TK-10, 10 μM, 48 h
Method: as §1

NCI-H322M = conditions: 10 μM, 48 h
Method: as §1

[1] = Homo sapiens, five dose 0.01–100 μM

COc1cccc2c1C(=O)c1c(O)c3c(c(O)c1C2=O)C[C@@](O)(C(=O)CO)C[C@@H]3O[C@H]1C[C@H](N)[C@H](O)[C@H](C)O1 [Doxorubicin, reference compound]
GI50 (HCC-2998; Homo sapiens, HCC-2998, five dose 0.01–100 μM): 260 nM
GI50 (SK-OV-3; Homo sapiens, SK-OV-3, five dose 0.01–100 μM): 220 nM
GI50 (SK-MEL-5; Homo sapiens, SK-MEL-5, five dose 0.01–100 μM): 80 nM
GI50 (OVCAR-8; Homo sapiens, OVCAR-8, five dose 0.01–100 μM): 100 nM
GI50 (HOP-92; Homo sapiens, HOP-92, five dose 0.01–100 μM): 100 nM
GI50 (LOX IMVI; [1]): 70 nM
GI50 (M14; Homo sapiens, M14, five dose 0.01–100 μM): 180 nM
GI50 (COLO 205; Homo sapiens, COLO 205, five dose 0.01–100 μM): 180 nM
GI50 (EKVX; [1]): 410 nM
GI50 (CAKI-1; Homo sapiens, CAKI-1, five dose 0.01–100 μM): 950 nM
GI50 (A498): 100 nM
GI50 (RXF 393; Homo sapiens, RXF 393, five dose 0.01–100 μM): 100 nM
GI50 (OVCAR-5; Homo sapiens, OVCAR-5, five dose 0.01–100 μM): 410 nM
GI50 (MDA-MB-468; Homo sapiens, MDA-MB-468, five dose 0.01–100 μM): 50 nM
GI50 (HL-60(TB); [1]): 120 nM
GI50 (SK-MEL-28; Homo sapiens, SK-MEL-28, five dose 0.01–100 μM): 210 nM
GI50 (K-562; Homo sapiens, K562, K-562, five dose 0.01–100 μM): 190 nM
GI50 (RPMI-8226; Homo sapiens, RPMI-8226, five dose 0.01–100 μM): 80 nM
GI50 (SF-268; Homo sapiens, SF-268, five dose 0.01–100 μM): 100 nM
GI50 (SNB-19; Homo sapiens, SNB-19, five dose 0.01–100 μM): 40 nM
GI50 (CCRF-CEM; [1]): 80 nM
GI50 (NCI-H226; Homo sapiens, NCI-H226, five dose 0.01–100 μM): 50 nM
GI50 (HCT-15; Homo sapiens, HCT-15, five dose 0.01–100 μM): 6460 nM
GI50 (BT-549; Homo sapiens, BT-549, five dose 0.01–100 μM): 230 nM
GI50 (SK-MEL-2; Homo sapiens, SK-MEL-2, five dose 0.01–100 μM): 170 nM
GI50 (NCI-H460; Homo sapiens, NCI-H460, five dose 0.01–100 μM): 20 nM
GI50 (SR; [1]): 30 nM
GI50 (HT29; Homo sapiens, HT-29, HT29, five dose 0.01–100 μM): 120 nM
GI50 (OVCAR-3; Homo sapiens, OVCAR-3, five dose 0.01–100 μM): 390 nM
GI50 (SNB-75; Homo sapiens, SNB-75, five dose 0.01–100 μM): 70 nM
GI50 (NCI-H23; Homo sapiens, NCI-H23, five dose 0.01–100 μM): 150 nM
GI50 (DU-145; Homo sapiens, DU-145, five dose 0.01–100 μM): 110 nM
GI50 (MDA-MB-435; Homo sapiens, MDA-MB-435, MDA-B-435, five dose 0.01–100 μM): 250 nM
GI50 (SF-295; Homo sapiens, SF-295, five dose 0.01–100 μM): 100 nM
GI50 (MOLT-4; Homo sapiens, MOLT-4, five dose 0.01–100 μM): 30 nM
GI50 (UO-31; Homo sapiens, UO-31, five dose 0.01–100 μM): 490 nM
GI50 (HOP-62; Homo sapiens, HOP-62, five dose 0.01–100 μM): 70 nM

CC(=O)O[C@H]1CC[C@]2(C)[C@H]3CC[C@@H]4[C@H]5[C@H](C)[C@@]6(C)OC[C@]5(CC[C@@]4(C)[C@]3(C)CC[C@H]2C1(C)C)CC6C(C)=O (stereo partly drawn) [Compound 1]
Growth Percent (TK-10): 109.75%
Growth Percent (NCI-H322M): 95.70%
Growth Percent (HCC-2998; HCC-2998, 10 μM): 92.22%
Growth Percent (SK-OV-3; SK-OV-3, 10 μM): 98.97%
Growth Percent (SK-MEL-5; SK-MEL-5, 10 μM): 47.27%
Growth Percent (OVCAR-8; OVCAR-8, 10 μM): 92.52%
Growth Percent (HOP-92; HOP-92, 10 μM): 70.21%
Growth Percent (LOX IMVI; 10 μM): 58.17%
Growth Percent (M14; M14, 10 μM): 74.76%
Growth Percent (COLO 205; COLO 205, 10 μM): 71.47%
Growth Percent (EKVX; 10 μM): 91.35%
Growth Percent (CAKI-1; CAKI-1, 10 μM): 74.02%
Growth Percent (RXF 393; RXF 393, 10 μM): 89.49%
Growth Percent (OVCAR-5; OVCAR-5, 10 μM): 97.46%
Growth Percent (MDA-MB-468; MDA-MB-468, 10 μM): 57.26%
Growth Percent (HL-60(TB); 10 μM): 39.32%
Growth Percent (SK-MEL-28; SK-MEL-28, 10 μM): 80.73%
Growth Percent (K-562; K-562, 10 μM): 39.40%
Growth Percent (RPMI-8226; RPMI-8226, 10 μM): 47.53%
Growth Percent (SF-268; SF-268, 10 μM): 97.23%
Growth Percent (SNB-19; SNB-19, 10 μM): 88.73%
Growth Percent (CCRF-CEM; 10 μM): 64.97%
Growth Percent (NCI-H226; NCI-H226, 10 μM): 91.65%
Growth Percent (HCT-15; HCT-15, 10 μM): 38.30%
Growth Percent (BT-549; BT-549, 10 μM): 96.17%
Growth Percent (SK-MEL-2; SK-MEL-2, 10 μM): 92.21%
Growth Percent (NCI-H460; NCI-H460, 10 μM): 84.90%
Growth Percent (SR; 10 μM): 62.46%
Growth Percent (HT29; HT29, 10 μM): 80.13%
Growth Percent (OVCAR-3; OVCAR-3, 10 μM): 84.02%
Growth Percent (SNB-75; SNB-75, 10 μM): 106.15%
Growth Percent (NCI-H23; NCI-H23, 10 μM): 84.77%
Growth Percent (DU-145; DU-145, 10 μM): 99.41%
Growth Percent (MDA-MB-435; MDA-MB-435, 10 μM): 83.22%
Growth Percent (SF-295; SF-295, 10 μM): 96.73%
Growth Percent (MOLT-4; MOLT-4, 10 μM): 42.52%
Growth Percent (UO-31; UO-31, 10 μM): 95.19%
Growth Percent (HOP-62; HOP-62, 10 μM): 100.79%
